From patent US4618677A, “Substituted phenylalkyl-(piperazinyl or homopiperazinyl)alkyl-thiols and -thiocarbamates useful for the treatment of immunological, inflammatory, and allergic disorders” (Boehringer Ingelheim Limited, priority 1984, dated 1986)
Where a name gives a salt, the structure may show the parent alone. Read-outs that look alike come from different tables or passages of the source.

System: human leukocytes (basophils)
Assay: Inhibition of IgE-mediated histamine release from human leukocytes (basophils), Procedure A
Type: cell-based
Details: Leukocyte, 1 h, read-out: In Vitro Inhibition of Histamine Release IC50 (μM) Procedure A
[1] = from human basophils, rabbit anti-human IgE as antigen, 60 min at 37° C., > = no response detected at highest dose indicated

Protocol: A. Procedure for Determining Inhibition of Histamine Release from Human Leukocytes (Basophils)
Separation of Leukocytes: A modification of the method of L. Lichtenstein and A. Osler, J. Exp. Med. 120, 507 (1964) is used. Heparinized human blood (80-100 ml) is mixed with 20 ml of saline (0.2%) containing 0.6 gm of dextrose and 1.2 gm of dextran in propylene centrifuge tubes. The mixture is kept at ambient temperature for 60-90 minutes to allow the separation of erythrocytes from the platelet-leukocyte-rich supernate. The supernate is removed and centrifuged for 8 minutes at 110 ×g in cold. The leukocyte pellet is washed twice with Tris buffer and finally suspended in 150-180 ml Tris-ACM buffer at 1-2 ×10^6 cells/ml.
Reaction Mixture: The reaction is carried out in 12×75 mm plastic tubes at a total volume of 1.23 ml. The reaction medium includes 0.05 ml rabbit anti-human IgE (the antigen), 0.2 ml of the test compound in water at concentrations ranging from 10-100 μM, and 1.0 ml of the leukocyte suspension. The reaction mixture is incubated in a 37° C. shaking water bath for 60 minutes. Upon completion of the reaction, the tubes are centrifuged and the supernatants collected. The protein is removed from the supernatants by precipitation with 0.2 ml of 8% perchloric acid.
Histamine Assay: Histamine release is measured by the automated fluorometric method of W. Siraganian and W. Hook in Chapter 102 of the Manual of Clinical Immunology, 2nd Edition, edited by R. Rose and H. Friedman, published by the American Society for Microbiology, Washington, D.C., 1980. Percent inhibition is calculated as follows: [formula]
The concentration which causes a 50 percent inhibition (IC50) of histamine release is interpolated from a plot of percent inhibition versus logarithm of drug concentration.

SMILES | IC50 [1] [µM] | IC50 (Homo sapiens) [µM]
SCCCN1CCN(Cc2ccccc2)CC1 [Example 1, 3-(4-Benzylpiperazin-1-yl)propanethiol dihydrochloride] |  | 140
SCCCN1CCN(Cc2ccc(Cl)cc2)CC1 [Example 3, 3-[4-(4-Chlorobenzyl)piperazin-1-yl]propanethiol dihydrochloride] |  | 4
COc1ccccc1NC(=O)SCCCN1CCN(Cc2ccc(Cl)cc2)CC1 [Example 12, N-(2-Methoxyphenyl)-S-{3-[4-(4-chlorobenzyl)piperazin-1-yl]propyl}thiocarbamate dihydrochloride sesquihydrate] | > 300 | 
COc1cccc(NC(=O)SCCCN2CCN(Cc3ccc(Cl)cc3)CC2)c1 [Example 13, N-(3-Methoxyphenyl)-S-{3-[4-(4-chlorobenzyl)piperazin-1-yl]propyl}thiocarbamate dihydrochloride] | 140 | 
Cc1ccc(CN2CCN(CCCS)CC2)cc1 [Example 17, 3-[4-(4-Methylbenzyl)piperazin-1-yl]propanethiol dihydrochloride] |  | 24
O=C(Nc1ccccc1)SCCCN1CCN(c2ccc(F)cc2)CC1 [Example 35, N-Phenyl-S-{3-[4-(4-fluorophenyl)piperazin-1-yl]propyl}thiocarbamate dihydrochloride] | > 1000 | 
COc1ccc(NC(=O)SCCCN2CCN(CCCc3ccc(Cl)cc3)CC2)cc1 [Example 39, N-(4-Methoxyphenyl)-S-{3-[4-[3-(4-chlorophenyl)propyl]piperazin-1-yl]propyl]thiocarbamate dihydrochloride hemihydrate] | 13 | 

Now from value to compound, other results behind:

IC50 [1] [µM] | SMILES | IC50 (Homo sapiens) [µM]
310 | O=C(Nc1ccccc1)SCCCN1CCN(Cc2ccccc2)CC1 [Example 2, N-Phenyl-S-[3-(4-benzylpiperazin-1-yl)propyl]thiocarbamate dihydrochloride monohydrate] | 
760 | CCCCc1ccc(NC(=O)SCCCN2CCN(Cc3ccc(Cl)cc3)CC2)cc1 [Example 8, N-(4-n-Butylphenyl)-S-{3-[4-(4-chlorobenzyl)piperazin-1-yl]propyl}thiocarbamate dihydrochloride] | 
47 | O=C(Nc1ccc(Cl)cc1)SCCCN1CCN(Cc2ccc(Cl)cc2)CC1 [Example 10, N-(4-Chlorophenyl)-S-{3-[4-(4-chlorobenzyl)piperazin-1-yl]propyl}thiocarbamate dihydrochloride monohydrate] | 
> 1000 | O=C(Nc1ccc(Cl)c(Cl)c1)SCCCN1CCN(Cc2ccc(Cl)cc2)CC1 [Example 11, N-(3,4-Dichlorophenyl)-S-{3-[4-(4-chlorobenzyl)piperazin-1-yl]propyl}thiocarbamate dihydrochloride] | 
> 1000 | Cc1ccc(CN2CCN(CCCSC(=O)Nc3ccccc3)CC2)cc1 [Example 18, N-Phenyl-S-{3-[4-(4-methylbenzyl)piperazin-1-yl]propyl}thiocarbamate dihydrochloride sesquihydrate] | 
> 1000 | CC1CN(Cc2ccc(Cl)cc2)C(C)CN1CCCSC(=O)Nc1ccccc1 (stereo not drawn) [Example 20, N-Phenyl-S-{3-[4-(4-chlorobenzyl)-2,5-dimethylpiperazin-1-yl]propyl}thiocarbamate dihydrochloride] | 
67 | CC(c1ccccc1)N1CCN(CCCSC(=O)Nc2ccccc2)CC1 (stereo not drawn) [Example 22, N-Phenyl-S-{3-[4-(1-phenylethyl)piperazin-1-yl]propyl}thiocarbamate dihydrochloride dihydrate] | 
> 1000 | O=C(Nc1ccccc1)SCCCN1CCN(CCc2ccccc2)CC1 [Example 24, N-Phenyl-S-[3-(4-phenethylpiperazin-1-yl)propyl]thiocarbamate dihydrochloride monohydrate] | 
30 | CCCCc1ccc(NC(=O)SCCCN2CCN(CCc3ccc(Cl)cc3)CC2)cc1 [Example 27, N-(4-n-Butylphenyl)-S-{3-[4-(4-chlorophenethyl)piperazin-1-yl]propyl}thiocarbamate dihydrochloride] | 
3 | O=C(Nc1ccccc1)SCCN1CCN(Cc2ccc(Cl)cc2)CC1 [Example 37, N-phenyl-S-{2-[4-(4-chlorobenzyl)piperazin-1-yl]ethyl}thiocarbamate dihydrochloride] | 
